Experimental findings from the supplement of paper PMC11208160 are described below.
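Note: IS621 bridge recombinase in Escherichia coli cells against a fixed T5 target plasmid.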

A short description of the series: recombinant UMI read abundance after kanamycin selection (control-corrected) (log10(CPM+1)); higher = more efficient recombination; extreme values may be limits of the assay; sequences stand for … in AGTGCAGAGAAAATCGGCCAGTTTTCTCTGCCTGCAGTCCGCATGCCGTGGGACCCCTTGGGTTCTAACCTGTTGCCTAGATTTATGCAGCGGACTGCCTTTCTCCCAAAGTGATAAACCGG…AGGTTGGTTTCACT; site = the 11-nt donor. How it is done:
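Pooled E. coli donor-specificity screen for the IS621 bridge recombinase. Each library member carries a reprogrammed 11-nt donor and a full-length LE bridge RNA expressed in cis from the natural promoter, with a paired donor-binding loop (8-nt LDG + 4-nt RDG) and a target-binding loop fixed to T5. It is co-electroporated with a T5 target plasmid; recombinase is induced with 0.07 mM IPTG and recombinants are selected on kanamycin. UMIs are counted as CPM, averaged over two biological replicates and corrected by the unselected control. Molecule = full bridge RNA written as DNA, built from the T5 scaffold: LDG = donor specificity nt 1-8, RDG = reverse complement of nt 8-11.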
In the case of “ACCCATACATGGACCGGTTTTCCCGGTAATCCGTATTTGAA (site ACCCATACTTT)”, the “recombinant UMI read abundance (log10)” value was found to be 1.34. As for “ACCCGAACATGGACCGGTTTTCCCGGTAATCCGTATTTGTC (site ACACGAACTGA)”, the figure is 0; as for “ACCCGAACATGGACCGGTTTTCCCGGTAATCCGTATTTGTC (site ACCCGAACTGA)”, 1.95; as for “ACCCGAACATGGACCGGTTTTCCCGGTAATCCGTATTTGTC (site ACGCGAACTGA)”, 0. As for “ACCCGAACATGGACCGGTTTTCCCGGTAATCCGTATTTGTC (site ACTCGAACTGA)”, the figure is 0. As for “ACCCTAGCATGGACCGGTTTTCCCGGTAATCCGTATTTGTT (site AACCTAGCTAA)”, the figure is 0.0322; as for “ACCCTAGCATGGACCGGTTTTCCCGGTAATCCGTATTTGTT (site ACCCTAGCTAA)”, 0; as for “ACCCTAGCATGGACCGGTTTTCCCGGTAATCCGTATTTGTT (site AGCCTAGCTAA)”, 0.00512. On to “ACCCTAGCATGGACCGGTTTTCCCGGTAATCCGTATTTGTT (site ATCCTAGCTAA)”, for which the “recombinant UMI read abundance (log10)” value was 0.016. For “ACCCTGTCATGGACCGGTTTTCCCGGTAATCCGTATTTGGG (site ACCCTGTCTCC)”, the “recombinant UMI read abundance (log10)” value came out at 0. As for “ACCGAGCCATGGACCGGTTTTCCCGGTAATCCGTATTTGCG (site ACCGAGCCTCG)”, the “recombinant UMI read abundance (log10)” value worked out at 0.0257. As for “ACCGTAGCATGGACCGGTTTTCCCGGTAATCCGTATTTGTG (site ACCGTAGCTCA)”, the figure is 0.533; as for “ACCGTATCATGGACCGGTTTTCCCGGTAATCCGTATTTGCA (site ACAGTATCTTG)”, 2.58; as for “ACCGTATCATGGACCGGTTTTCCCGGTAATCCGTATTTGCA (site ACCGTATCTTG)”, 2.45. The same measure for “ACCGTATCATGGACCGGTTTTCCCGGTAATCCGTATTTGCA (site ACGGTATCTTG)”: 0.962. Turning to “ACCGTATCATGGACCGGTTTTCCCGGTAATCCGTATTTGCA (site ACTGTATCTTG)”, the “recombinant UMI read abundance (log10)” value stood at 0.874.

Turning to “ACCGTGGCATGGACCGGTTTTCCCGGTAATCCGTATTTGGA (site ACCGTGGCTTC)”, the “recombinant UMI read abundance (log10)” value was determined as 0.325. As for “ACCGTTACATGGACCGGTTTTCCCGGTAATCCGTATTTGTC (site ACCGTTACTGA)”, the figure is 1.49; as for “ACCTAAACATGGACCGGTTTTCCCGGTAATCCGTATTTGGG (site ACCTAAACTCC)”, 0.256; as for “ACCTAAACATGGACCGGTTTTCCCGGTAATCCGTATTTGGG (site ACCTACACTCC)”, 0.0196. The same measure for “ACCTAAACATGGACCGGTTTTCCCGGTAATCCGTATTTGGG (site ACCTAGACTCC)”: 0.0149; for “ACCTAAACATGGACCGGTTTTCCCGGTAATCCGTATTTGGG (site ACCTATACTCC)”: 0.0143; for “ACCTACACATGGACCGGTTTTCCCGGTAATCCGTATTTGGG (site ACCTAAACTCC)”: 0.00329. As for “ACCTACACATGGACCGGTTTTCCCGGTAATCCGTATTTGGG (site ACCTACACTCC)”, the figure is 0.0331; as for “ACCTACACATGGACCGGTTTTCCCGGTAATCCGTATTTGGG (site ACCTAGACTCC)”, 0.00747. As to “ACCTACACATGGACCGGTTTTCCCGGTAATCCGTATTTGGG (site ACCTATACTCC)”, the “recombinant UMI read abundance (log10)” value was 0.0213. As to “ACCTAGACATGGACCGGTTTTCCCGGTAATCCGTATTTGCG (site ACCTAGACTCA)”, the “recombinant UMI read abundance (log10)” value was 0.0199. For the sequence “ACCTAGACATGGACCGGTTTTCCCGGTAATCCGTATTTGCG (site ACCTAGACTCC)”, the “recombinant UMI read abundance (log10)” value came to 0.0218. For “ACCTAGACATGGACCGGTTTTCCCGGTAATCCGTATTTGCG (site ACCTAGACTCG)”, the “recombinant UMI read abundance (log10)” value was determined as 1.58.

As for “ACCTAGACATGGACCGGTTTTCCCGGTAATCCGTATTTGCG (site ACCTAGACTCT)”, the “recombinant UMI read abundance (log10)” value was 0.262. The same measure for “ACCTAGACATGGACCGGTTTTCCCGGTAATCCGTATTTGGC (site ACCTAGACTAC)”: 0.532.

Consider “ACCTAGACATGGACCGGTTTTCCCGGTAATCCGTATTTGGC (site ACCTAGACTCC)”, for which the “recombinant UMI read abundance (log10)” value was determined as 0.0128. The same measure for “ACCTAGACATGGACCGGTTTTCCCGGTAATCCGTATTTGGC (site ACCTAGACTGC)”: 1.82; for “ACCTAGACATGGACCGGTTTTCCCGGTAATCCGTATTTGGC (site ACCTAGACTTC)”: 0.00402; for “ACCTAGACATGGACCGGTTTTCCCGGTAATCCGTATTTGTG (site ACCTAGACTCA)”: 0.799. The same measure for “ACCTAGACATGGACCGGTTTTCCCGGTAATCCGTATTTGTG (site ACCTAGACTCC)”: 0.114; for “ACCTAGACATGGACCGGTTTTCCCGGTAATCCGTATTTGTG (site ACCTAGACTCG)”: 0.469. As for “ACCTAGACATGGACCGGTTTTCCCGGTAATCCGTATTTGTG (site ACCTAGACTCT)”, the figure is 0.22; as for “ACCTAGCCATGGACCGGTTTTCCCGGTAATCCGTATTTGGG (site ACCTAGACTCC)”, 0.00935; as for “ACCTAGCCATGGACCGGTTTTCCCGGTAATCCGTATTTGGG (site ACCTAGCCTCC)”, 0.00989. Consider “ACCTAGCCATGGACCGGTTTTCCCGGTAATCCGTATTTGGG (site ACCTAGGCTCC)”, for which the “recombinant UMI read abundance (log10)” value came out at 0.0311.

In the case of “ACCTAGCCATGGACCGGTTTTCCCGGTAATCCGTATTTGGG (site ACCTAGTCTCC)”, the “recombinant UMI read abundance (log10)” value worked out at 0.0502.

“ACCTATACATGGACCGGTTTTCCCGGTAATCCGTATTTGGG (site ACCTAAACTCC)”: the “recombinant UMI read abundance (log10)” value came to 0.00642. The same measure for “ACCTATACATGGACCGGTTTTCCCGGTAATCCGTATTTGGG (site ACCTACACTCC)”: 0.0606; for “ACCTATACATGGACCGGTTTTCCCGGTAATCCGTATTTGGG (site ACCTAGACTCC)”: 0.0071; for “ACCTATACATGGACCGGTTTTCCCGGTAATCCGTATTTGGG (site ACCTATACTCC)”: 0.0144.

As to “ACCTCATCATGGACCGGTTTTCCCGGTAATCCGTATTTGGT (site ACCTCATCTAC)”, the “recombinant UMI read abundance (log10)” value was determined as 0.128. As for “ACCTCCGCATGGACCGGTTTTCCCGGTAATCCGTATTTGAG (site ACCTCCGCTCT)”, the figure is 0.147; as for “ACCTCTCCATGGACCGGTTTTCCCGGTAATCCGTATTTGCA (site ACCTCTCCTTG)”, 0.367.

On to “ACCTGGACATGGACCGGTTTTCCCGGTAATCCGTATTTGAG (site ACCTGGACTCT)”, for which the “recombinant UMI read abundance (log10)” value is 1.41. With “ACCTTTCCATGGACCGGTTTTCCCGGTAATCCGTATTTGGT (site ACCTTTCCTAC)”, the “recombinant UMI read abundance (log10)” value is 0. As for “ACGAAAACATGGACCGGTTTTCCCGGTAATCCGTATTTGCT (site ACGAAAACTAG)”, the figure is 1.81.

For “ACGAAAACATGGACCGGTTTTCCCGGTAATCCGTATTTGCT (site CCGAAAACTAG)”, the “recombinant UMI read abundance (log10)” value came to 0.

For the sequence “ACGAAAACATGGACCGGTTTTCCCGGTAATCCGTATTTGCT (site GCGAAAACTAG)”, the “recombinant UMI read abundance (log10)” value amounted to 0.581. The same measure for “ACGAAAACATGGACCGGTTTTCCCGGTAATCCGTATTTGCT (site TCGAAAACTAG)”: 0. As for “ACGAATCCATGGACCGGTTTTCCCGGTAATCCGTATTTGTT (site ACGAATCCTAA)”, the figure is 1.32; as for “ACGAATCCATGGACCGGTTTTCCCGGTAATCCGTATTTGTT (site CGGAATCCTAA)”, 0.

For the sequence “ACGACCACATGGACCGGTTTTCCCGGTAATCCGTATTTGTT (site ACGACCACTAA)”, the “recombinant UMI read abundance (log10)” value turned out to be 1.29. As to “ACGACTACATGGACCGGTTTTCCCGGTAATCCGTATTTGAC (site AAGACTACTGT)”, the “recombinant UMI read abundance (log10)” value came to 1.19. The same measure for “ACGACTACATGGACCGGTTTTCCCGGTAATCCGTATTTGAC (site ACGACTACTGT)”: 2.45. As for “ACGACTACATGGACCGGTTTTCCCGGTAATCCGTATTTGAC (site AGGACTACTGT)”, the figure is 0.613; as for “ACGACTACATGGACCGGTTTTCCCGGTAATCCGTATTTGAC (site ATGACTACTGT)”, 1.69. As to “ACGAGGCCATGGACCGGTTTTCCCGGTAATCCGTATTTGCC (site ACGAGGCCTGG)”, the “recombinant UMI read abundance (log10)” value was 0.486. As for “ACGAGTCCATGGACCGGTTTTCCCGGTAATCCGTATTTGGG (site ACGAGTCCTCC)”, the figure is 0.00727; as for “ACGAGTGCATGGACCGGTTTTCCCGGTAATCCGTATTTGGT (site ACAAGTGCTAC)”, 2.22.
